Source: patent US9783522B2, “2-amino-pyridine and 2-amino-pyrimidine derivatives and medicinal use thereof” (MITSUBISHI TANABE PHARMA CORPORATION, priority 2014, dated 2017)
pIC50: −log10 of the molar value.

biological target: human recombinant ATX (Homo sapiens, UniProt Q13822); experiment: Enzyme inhibitory test (choline release from LPC, fluorescence); assay type: biochemical; settings: LPC substrate, room temperature 1 hr, read-out: Experimental Example 1 human ATX IC50
Protocol: A mixture (10 μL) of substrate and a set of choline quantification reagents (200 μM LPC (1-Oleoyl-sn-glycero-3-phosphocholine Sigma #L1881), 25 μM Amplex UltraRed reagent (Invitrogen), 0.1 U/mL Peroxidase (TOYOBO), 1 U/mL Choline oxidase (TOYOBO)), prepared with assay buffer (50 mM Tris (pH 8.0), 140 mM NaCl, 5 mM KCl, 1 mM CaCl2, 1 mM MgCl2, 0.1% BSA (Albumin from bovine serum, SIGMA), 0.0025% Triton X-100), enzyme (0.4 ng/μL human recombinant ATX) (10 μL), compound-containing solution (100 nL) were dispensed to a 384-well plate, incubated at room temperature for 1 hr and the fluorescence (Ex.525 nm/Em.598 nm) was measured. As the standard, choline chloride was used. With a blank free of enzyme was taken as inhibitory rate 100%, and a control free of inhibitor as inhibitory rate 0%, the inhibitory rate was calculated, and IC50 value was calculated from the inhibitory activity percentage at each concentration.

| SMILES | pIC50 |
| --- | --- |
| Cn1nc(C(=O)O)c2cc(-c3ccc(NCc4cccc(OC(F)(F)F)c4)nc3)ccc21 [Example 7, 1-methyl-5-[6-(3-trifluoromethoxy-benzylamino)-pyridin-3-yl]-1H-indazole-3-carboxylic acid] | 8.52 |
| COCCOc1cc(-c2cnc(NCc3cccc(OC(F)(F)F)c3)nc2)cc(C(=O)O)c1Cl [Example 132] | 7.82 |
| O=C(O)c1cc(-c2cnc(NCc3cccc(OC(F)(F)F)c3)nc2)cc(OC2COC2)c1Cl [Example 136] | 7.51 |
| COc1ccc(-c2ccc(NCc3cccc(OC(F)(F)F)c3)nc2)nc1[C@H]1C[C@@H]1C(=O)O [16 (compound 1a), (1S,2S)-2-[5-methoxy-6′-(3-trifluoromethoxy-benzylamino)-[2,3′]bipyridinyl-6-yl]-cyclopropanecarboxylic acid] | 8.70 |
| O=C(O)CN1CCN(c2ccc(-c3ccc(NCc4cccc(OC(F)(F)F)c4)nc3)cc2F)C1=O [Example 44] | 7.12 |
| COc1c(CCC(=O)O)cc(-c2ccc(NCc3cccc(OC(F)(F)F)c3)nc2)cc1C1COC1 [Example 92] | 7.64 |
| Cn1nc(C(=O)O)c2cc(-c3cnc(NCc4cccc(OC(F)(F)F)c4)nc3)ccc21 [Example 74] | 8.52 |
| COc1ccc(-c2cnc(NCc3cccc(OC(F)(F)F)c3)nc2)cc1CCC(=O)O [Example 21, 3-{2-methoxy-5-[2-(3-trifluoromethoxy-benzylamino)-pyrimidin-5-yl]-phenyl}-propionic acid] | 7.43 |
| COc1ccc(-c2cnc(NCc3cccc(OC(F)(F)F)c3)nc2)cc1C(=O)O [Example 156] | 7.03 |
| CS(=O)(=O)CCCn1nc(C(=O)O)c2cc(-c3ccc(NCc4cccc(OC(F)(F)F)c4)nc3)ccc21 [Example 75] | 8.22 |
| COc1ccc(-c2cnc(NCc3cccc(OC(F)(F)F)c3)nc2)nc1[C@H]1C[C@@H]1C(=O)O [17 (compound 4a), (1S,2S)-2-{3-methoxy-6-[2-(3-trifluoromethoxy-benzylamino)-pyrimidin-5-yl]-pyridin-2-yl}-cyclopropanecarboxylic acid] | 8.70 |
| COc1c(C(=O)O)cc(-c2cnc(NCc3cccc(OC(F)(F)F)c3)nc2)cc1-c1ccncc1 [Example 33, 2-methoxy-3-pyridin-4-yl-5-[2-(3-trifluoromethoxy-benzylamino)-pyrimidin-5-yl]-benzoic acid] | 8.00 |
| COc1cc(-c2ccc(NCc3cccc(OC(F)(F)F)c3)nc2)ccc1C1CC1C(=O)O (stereo not shown) [Example 88] | 7.70 |
| COc1c(Cn2ccnc2)cc(-c2ccc(NCc3cccc(OC(F)(F)F)c3)nc2)cc1C(C)(C)C(=O)O [Example 108] | 7.62 |
| COc1c(C(=O)O)cc(-c2cnc(NCc3cccc(OC(F)(F)F)c3)nc2)cc1-c1ccoc1 [Example 140] | 7.51 |
| COc1ccc(-c2ccc(NCc3cccc(OC(F)(F)F)c3)nc2)cc1C(=O)O [Example 34, 2-methoxy-5-[6-(3-trifluoromethoxy-benzylamino)-pyridin-3-yl]-benzoic acid] | 7.08 |
| COc1c(C#N)cc(-c2ccc(NCc3cccc(OC(F)(F)F)c3)nc2)cc1C(C)(C)C(=O)O [Example 26, 2-{3-cyano-2-methoxy-5-[6-(3-trifluoromethoxy-benzylamino)-pyridin-3-yl]-phenyl}-2-methyl-propionic acid] | 7.82 |

| SMILES | pIC50 |
| --- | --- |
| COc1cc(-c2ccc(NCc3cccc(OC(F)(F)F)c3)nc2)cc(OC)c1CCC(=O)O [Example 98] | 8.15 |
| COc1c(C#N)cc(-c2ccc(NCc3cccc(OC(F)(F)F)c3)nc2)cc1C(=O)O [Example 63] | 7.60 |
| COc1ccc(-c2ccc(NCc3cccc(OC(F)(F)F)c3)nc2)c2[nH]nc(C(=O)O)c12 [Example 69] | 8.00 |
| COc1ccc(-c2ccc(NCc3cccc(OC(F)(F)F)c3)nc2)cc1OCC(=O)O [Example 129] | 7.37 |
| COCCn1nc(C(=O)O)c2cc(-c3ccc(NCc4cccc(OC(F)(F)F)c4)nc3)ccc21 [Example 73] | 8.05 |
| O=C(O)CCc1cc(-c2cnc(NCc3cccc(OC(F)(F)F)c3)nc2)ccc1Cl [Example 11, 3-{2-chloro-5-[2-(3-trifluoromethoxy-benzylamino)-pyrimidin-5-yl]-phenyl}-propionic acid] | 7.89 |
| COc1cc(-c2ccc(NCc3cccc(OC(F)(F)F)c3)nc2)ccc1OC[C@H]1CC[C@H](C(=O)O)CC1 [Example 126] | 7.04 |
| COc1c(C#N)cc(-c2ccc(NCc3cccc(OC(F)(F)F)c3)nc2)cc1CCC(=O)O [Example 10, 3-{3-cyano-2-methoxy-5-[6-(3-trifluoromethoxy-benzylamino)-pyridin-3-yl]-phenyl}-propionic acid] | 7.77 |
| COc1ccc(-c2ccc(NCc3cccc(OC(F)(F)F)c3)nc2)cc1CC(=O)O [Example 109] | 7.92 |
| O=C(O)c1cc(-c2cnc(NCc3cccc(OC(F)(F)F)c3)nc2)cc(OC2CNC2)c1Cl [Example 30, 3-(azetidin-3-yloxy)-2-chloro-5-[2-(3-trifluoromethoxy-benzylamino)-pyrimidin-5-yl]-benzoic acid] | 7.66 |
| O=C(O)c1ccc2nc(-c3ccc(NCc4cccc(OC(F)(F)F)c4)nc3)oc2c1 [Example 3, 2-[6-(3-trifluoromethoxy-benzylamino)-pyridin-3-yl]-benzoxazole-6-carboxylic acid] | 7.46 |
| O=C(O)c1cccc2nc(-c3ccc(NCc4cccc(OC(F)(F)F)c4)nc3)[nH]c12 [Example 2, 2-[6-(3-trifluoromethoxy-benzylamino)-pyridin-3-yl]-3H-benzimidazole-4-carboxylic acid] | 7.34 |
| COc1ccc(-c2ccc(NCc3cccc(OC(F)(F)F)c3)nc2)cc1CCC(=O)O [Example 22, 3-{2-methoxy-5-[6-(3-trifluoromethoxy-benzylamino)-pyridin-3-yl]-phenyl}-propionic acid] | 7.48 |
| COc1ccc(-c2ccc(NCc3cccc(C(C)C)c3)nc2)cc1C(=O)O [Example 176] | 7.33 |
| O=C(O)c1cc(-c2cnc(NCc3cccc(OC(F)(F)F)c3)nc2)cc(OC2CCOCC2)c1Cl [Example 133] | 8.00 |
| COc1c(C#N)cc(-c2cnc(NCc3cccc(OC(F)(F)F)c3)nc2)cc1CCC(=O)O [Example 85] | 8.15 |

biological target: T1, ATX activity in plasma (Rattus norvegicus, UniProt Q64610); experiment: Measurement of ATX activity in plasma (ex vivo) after oral administration to rats; settings: male Wistar rat, 8 hr after administration, plasma ATX activity vs solvent control
T1 construct: from tissue; host or cells: plasma of male Wistar rats after oral dosing (ex vivo)
Protocol: A compound administration solution prepared by wet pulverization in a mixer mill (type: MM400) for 10 min and adjusting to a given concentration with 0.5% aqueous carboxymethylcellulose solution was orally administered to male Wistar rat (5-week-old when used) at 5 mL/kg. Blood samples were collected from the cervical vein over time at 8 to 24 hr after administration. The blood was heparin-treated using a micro blood collection tube Capiject (CJ-AL, TERUMO CORPORATION), and the plasma was separated by centrifugation (4° C., 12,000 rpm, 2 min), and preserved at −80° C. The rats after blood sampling were euthanized by exsanguination from the caudal vena cava under isoflurane inhalation anesthesia. The measurement of ATX activity in plasma was evaluated using the concentration of choline in the plasma, which was liberated from lysophosphatidylcholine (substrate of ATX) by the lysophospholipase D activity of ATX, as an index. An equal amount of 2× assay buffer (200 mM Tris-HCl pH9.0, 10 mM MgCl2, 1 M NaCl, 0.1% Triton X-100) is added to plasma (12 μL) and reacted at 37° C. for 6 hr. The reaction mixture (10 μL) after reaction for 6 hr and 45 μL of reagent R1 solution (100 mM Tris-HCl pH 8.0, 0.5 mM TOOS, 10 U/mL peroxidase, 0.01% Triton X-100) were added and blended and absorbance at 550-700 nm was measured and used as a prevalue. As the standard, choline chloride was used. 1 mM choline chloride was diluted with 2× assay buffer up to 7 steps in 2-fold serial dilution, R1 solution was treated similarly and the absorbance was measured. Furthermore, 15 μL of reagent R2 solution (100 mM Tris-HCl pH 8.0, 1 mM 4-aminoantipyrine, 10 U/mL choline oxidase, 0.01% Triton X-100) was added, and the mixture was reacted at room temperature for 10 min, and absorbance at 550-700 nm was measured. The choline concentration per reaction time was calculated from the difference between the absorbance after R2 solution addition and prevalue measured before R2 addition and used as ATX activity value. inhibitory activity (%)=100×{1-[choline concentration (μM) of test substance administration group/choline concentration (μM) of solvent control group]} <calculating formula>

| SMILES | Experimental Example 2 rat single administration test (inhibitory activity (%) at 8 hr after 1 mg/kg oral administration) |
| --- | --- |
| COc1ccc(-c2cnc(NCc3cccc(OC(F)(F)F)c3)nc2)cc1C(=O)O [Example 156] | 82% |
| COc1ccc(-c2cnc(NCc3cccc(OC(F)(F)F)c3)nc2)nc1[C@H]1C[C@@H]1C(=O)O [17 (compound 4a), (1S,2S)-2-{3-methoxy-6-[2-(3-trifluoromethoxy-benzylamino)-pyrimidin-5-yl]-pyridin-2-yl}-cyclopropanecarboxylic acid] | 88% |
| COc1c(C#N)cc(-c2ccc(NCc3cccc(OC(F)(F)F)c3)nc2)cc1CCC(=O)O [Example 10, 3-{3-cyano-2-methoxy-5-[6-(3-trifluoromethoxy-benzylamino)-pyridin-3-yl]-phenyl}-propionic acid] | 84% |
| COc1c(C#N)cc(-c2cnc(NCc3cccc(OC(F)(F)F)c3)nc2)cc1CCC(=O)O [Example 85] | 88% |
